# Test results published in article PMC2888031 (Bioorganic & medicinal chemistry, 2009).
# Entries after “also recorded” stand apart in the source; their conditions may differ.
# Experiments:
# S. aureus = S. aureus culture growth in the presence of 500 µM inhibitor; assay type: cell-based, Staphylococcus aureus; details: vs control cultures in 2.5% DMSO (Fig. 4)
# [1] = target: Bacillus anthracis sortase enzyme (BaSrtA) (Bacillus anthracis, UniProt P0DPQ5); test: biochemical
# Sequence of Bacillus anthracis sortase enzyme (BaSrtA) (P0DPQ5 57-210 limits assumed): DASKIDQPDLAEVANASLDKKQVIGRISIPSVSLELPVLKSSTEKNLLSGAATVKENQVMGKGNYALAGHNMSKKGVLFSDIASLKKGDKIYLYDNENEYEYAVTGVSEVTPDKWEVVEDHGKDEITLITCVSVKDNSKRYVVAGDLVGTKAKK
SMILES,effect on S. aureus growth (S. aureus),IC50 [1] [nM]
COc1c(S)cnn(-c2cccc(Cl)c2)c1=O [Compound 2],only modestly perturb growth,
CC1=NN(c2ccccc2)C(=S)/C1=C/Nc1ccccn1 [3–17],do not substantially affect bacterial growth,
CCSc1c(S)cnn(-c2ccccc2)c1=O [2–9],do not significantly inhibit S. aureus growth; also recorded: not bactericidal; also recorded: do not impair microbial growth in cell culture,
CC1=NN(c2ccccc2)C(=S)/C1=C/Nc1c(Br)cc(Br)cc1Br [3–12],do not substantially affect bacterial growth; also recorded: no detrimental effect to bacterial viability; also recorded: non-bacteriocidal; also recorded: do not impair microbial growth in cell culture,1700 ± 200
Cc1ccc(N2C(=O)/C(=C/c3cc([N+](=O)[O-])cc(Br)c3O)SC2=S)c(C)c1 [Compound 1],toxic,
CC1=NN(c2ccccc2)C(=S)/C1=C/Nc1ccc(/N=N/c2ccccc2)cc1 [3–9],do not substantially affect bacterial growth; also recorded: non-bacteriocidal,
CC1=NN(c2ccccc2)C(=S)/C1=C/Nc1ccc(Br)cc1 [Compound 3-1],do not substantially affect bacterial growth,
CC1=NN(c2ccccc2)C(=S)/C1=C/Nc1ccc([N+](=O)[O-])cc1 [Compound 3],only modestly perturb growth,
CCOc1cnn(-c2cccc(C)c2)c(=O)c1S [2–20],do not significantly inhibit S. aureus growth; also recorded: not bactericidal,
